ChEMBL document CHEMBL2321747, “A nonionic inhibitor with high specificity for the UDP-Gal donor binding site of human blood group B galactosyltransferase: design, synthesis, and characterization” (J Med Chem, 2013)
Calls of active or inactive are those of the source. The rule behind the calls is not given here.

How the values were obtained:
[1] = target: T1, Beta-1,4-galactosyltransferase 1 (Bos taurus) (UniProt P08037); assay: Binding affinity to bovine beta-1,4-galactosyltransferase 1 using UDP-Gal as substrate at 1.5 mM after 15 hrs by NMR spectroscopic analysis in presence of magnesium ions
T1 sequence (whole entry): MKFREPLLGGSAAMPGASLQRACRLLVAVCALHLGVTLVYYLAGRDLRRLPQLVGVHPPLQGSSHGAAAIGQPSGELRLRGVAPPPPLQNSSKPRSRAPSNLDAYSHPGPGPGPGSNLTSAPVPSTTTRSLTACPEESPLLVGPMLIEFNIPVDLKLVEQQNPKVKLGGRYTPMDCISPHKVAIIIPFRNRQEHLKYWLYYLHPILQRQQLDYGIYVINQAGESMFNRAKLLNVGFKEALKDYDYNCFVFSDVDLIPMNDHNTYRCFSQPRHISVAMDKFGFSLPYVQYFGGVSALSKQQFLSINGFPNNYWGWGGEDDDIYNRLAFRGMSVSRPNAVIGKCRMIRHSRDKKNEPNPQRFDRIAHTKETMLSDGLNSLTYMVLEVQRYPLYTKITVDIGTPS

Homo sapiens = species: Homo sapiens; assay: (§1) Competitive inhibition of human blood group A N-acetylgalactosaminyltransferase using UDP-GalNac as substrate in presence of magnesium ions
[2] = target: T2, Histo-blood group ABO system transferase (Homo sapiens, UniProt P16442); assay: Competitive inhibition of human blood group B Galactosyltransferase using UDP-Gal as substrate by Michaelis-Menten equation analysis in presence of magnesium ions
T2 sequence (P16442 whole entry): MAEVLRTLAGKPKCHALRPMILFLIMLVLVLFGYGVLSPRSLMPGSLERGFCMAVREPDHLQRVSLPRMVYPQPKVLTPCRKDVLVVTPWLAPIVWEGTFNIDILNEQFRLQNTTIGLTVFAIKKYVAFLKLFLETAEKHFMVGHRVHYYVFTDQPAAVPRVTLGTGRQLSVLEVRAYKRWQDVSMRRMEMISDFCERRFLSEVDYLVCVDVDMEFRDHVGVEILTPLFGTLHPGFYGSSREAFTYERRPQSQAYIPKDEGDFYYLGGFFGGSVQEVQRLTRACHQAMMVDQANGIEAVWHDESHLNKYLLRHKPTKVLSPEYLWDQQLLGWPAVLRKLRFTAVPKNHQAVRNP

[3] = target: T2, Histo-blood group ABO system transferase; assay: Inhibition of human blood group B Galactosyltransferase using radiolabeled UDP-Gal as substrate in presence of manganese ions
[4] = target: T2, Histo-blood group ABO system transferase; assay: Inhibition of human blood group B Galactosyltransferase using UDP-Gal as substrate by STD NMR analysis in presence of magnesium ions
[5] = target: T2, Histo-blood group ABO system transferase; assay: Binding affinity to human blood group B Galactosyltransferase after 300 secs by SPR analysis
[6] = target: T2, Histo-blood group ABO system transferase; assay: Binding affinity to human blood group B Galactosyltransferase by STD NMR analysis in presence of magnesium ions
[7] = as §1

SMILES: O=c1[nH]c(=O)c2[nH]c(=O)n(C[C@@H](O)[C@H](O)[C@H](O)CO[C@H]3O[C@H](CO)[C@H](O)[C@H](O)[C@H]3O)c2[nH]1
- inhibition [1]: Active
- inhibition (Homo sapiens): inactive
- Ki [2]: 565 µM
- IC50 [3]: 1.6 mM
- Ki [3]: 1.5 mM
- IC50 [4]: 389 µM
- Ki [4]: 117 µM
- Kd [5]: 0.254 mM
- Kd [6]: 182 µM

SMILES: O=c1[nH]c(=O)c2[nH]c(=O)n(C[C@H](O)[C@H](O)[C@H](O)CO)c2[nH]1
- Ki [7]: 712 µM
- Ki [3]: 1.5 mM
- Ki [4]: 361 µM

SMILES: O=c1[nH]c(=O)c2[nH]c(=O)n(C[C@@H](O)[C@H](O)[C@H](O)CO)c2[nH]1
- Ki [7]: 1100 µM
- Ki [3]: 2.2 mM
- Ki [4]: 571 µM
- Kd [5]: 2.3 mM
